According to the NIST ThermoML archive (doi:10.1021/acs.jced.7b00378):

Columns and labels:
[1] = wn = mass fraction of the nth substance listed; conditions: 100 kPa, Liquid, Vibrating tube method
[2] = refractive index (Na D-line) (dimensionless); wn = mass fraction of the nth substance listed; conditions: 100 kPa, Liquid, Standard Abbe refractometry

O=S(=O)([O-])[O-].[Mg+2] [magnesium sulfate] + O
Conditions | mass density, [1] [kg/m3] | refractive index, [2]
288.15 K, w1 = 0.2409 | 1274.47 | 1.384
298.15 K, w1 = 0.2768 | 1302.41 | 1.3895
308.15 K, w1 = 0.2974 | 1325.91 | 1.3902
